Measurements published in BindingDB's records for patent US10759792 (The Johns Hopkins University, 2020).

Biological target: Calcium/calmodulin-dependent protein kinase type II subunit delta (Homo sapiens, UniProt Q13557)
Assay: Inhibition Assay
Procedure: Compounds were added in 5 uL volume to wells in UV transparent 96-well plates ( area well size). The final compound concentrations tested ranged from 0.5 nM to 10 uM). Assays were performed in duplicate. CaMKIIδ is added to at a final concentration of 16 nM to a mixture containing 100 mM Tris (pH 7.5), 150 mM KCl, 0.27 mM EGTA, 1.3 mM PEP, 0.2 mg/ml AC3, 6.9% (v/v) PK/LDH mixture (Sigma P0294), 0.38 mM NADH and kept on ice. 72 uL of the enzyme mixture was added to the wells containing compounds and the plate was shaken briefly and kept on ice. The assay was initiated by adding 23 uL of a mixture containing 100 mM Tris (pH 7.5), 150 mM KCl, 1.7 mM CaCl2, 48 mM MgCl2, 0.35 mM ATP and 6.7 ug/mL calmodulin. The rate of ADP released was measured as the rate of absorbance decrease at […] at 25° C.

Sequence of Calcium/calmodulin-dependent protein kinase type II subunit delta (Q13557 whole entry): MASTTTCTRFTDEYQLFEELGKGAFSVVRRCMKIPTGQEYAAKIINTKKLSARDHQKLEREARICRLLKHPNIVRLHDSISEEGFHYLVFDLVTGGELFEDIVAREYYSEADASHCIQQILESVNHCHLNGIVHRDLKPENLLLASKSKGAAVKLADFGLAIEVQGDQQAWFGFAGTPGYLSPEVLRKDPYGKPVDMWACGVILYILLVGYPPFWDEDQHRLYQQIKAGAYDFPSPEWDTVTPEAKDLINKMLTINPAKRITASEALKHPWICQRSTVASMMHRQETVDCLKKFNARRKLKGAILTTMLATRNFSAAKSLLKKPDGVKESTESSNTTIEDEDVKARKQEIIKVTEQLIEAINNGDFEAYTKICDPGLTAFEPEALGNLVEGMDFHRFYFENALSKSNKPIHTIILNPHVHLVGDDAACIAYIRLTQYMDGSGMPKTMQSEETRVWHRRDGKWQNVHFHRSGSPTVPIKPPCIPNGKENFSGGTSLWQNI

SMILES	IC50 [nM]
Cc1ccc2c(c1)[nH]c1nccc(-c3cccc(NCCN)c3)c12 [US10759792, Compound I-11]	< 50
NCCCNc1cccc(-c2ccnc3[nH]c4ccccc4c23)c1 [US10759792, Compound I-8]	< 50
